Columns and labels:
[1] = in vivo; conditions: male, Sprague-Dawley, rat
Description: Compound F332 was further subjected to in vivo pharmacokinetic study. The UPLC-MS/MS system consists of an Acquity Waters UPLC interfaced with triple quadrupole mass spectrometer (Micromass model Quattro Ultima) equipped with an electrospray ionization source in positive mode. Chromatographic separation was done on ACQUITY UPLC BEH C18 […] (2.1×50 mm) column. The mobile phase consists of methanol+0.1% formic acid (solvent B) and Milli-Q water+0.1% formic acid (solvent A). Multiple reaction monitoring (MRM) was set monitoring the transitions for F332 [M+H]^+ at 299>142 m/z. The collision energy, cone voltage, source temperature, desolvation temperature and capillary voltage are 25, 30, 150° C., 350° C. and 3 Kv, respectively. The cone gas and desolvation gas was 150 L/Hr and 600 L/Hr, respectively.
Male Sprague-Dawley (SD) rats (body weight 250-280 g) were obtained from Centralised Animal Facilities, The Hong Kong Polytechnic University. Animals were kept in a temperature and humidity controlled environment with 12 hour light-dark cycle with standard diet and water. Animal experiment protocol was approved by the Animal Subjects Ethics Sub-Committee of The Hong Kong Polytechnic University. Right jugular vein cannulation was done one day in advance of the experiment. Animal were fasted overnight and had free access to water throughout the experiment. F332 was freshly prepared in 5% CremophorEL, 5% ethanol, 90% saline at a concentration of 2 mg/ml. F332 was prepared on the day of use and used for animal study within half an hour. In the current study, F332 was administered through passive oral feeding (oral) and intravenous (IV) injection. Blood samples (approx. 500 μL) were collected in heparinzied tubes (20 units of heparin salt/tube) via jugular vein at 5, 10, 30, 45, 60, 120, 240 and 420 minutes post administration for IV study. As for oral study, plasma samples were collected at 2, 10, 30, 45, 60, 120, 240, 480 and 600 minutes. Blood plasma samples were collected by centrifuged at 16,100 G for 10 minutes. For all blood plasma samples, 3 fold volume of methanol was added for protein precipitation. Supernatant was filtered by a syringe filter before UPLC-MS/MS analysis. Pharmacokinetic parameters in plasma were determined by non-compartmental pharmacokinetics data analysis using Pharmacokinetics Solutions 2.0 software (Summit Research Services, Montrose, Colo., USA). The pharmacokinetic parameters determined include maximal plasma concentration (Cmax), time to reach maximal plasma concentration (Tmax), mean residence time (MRT), absorption/distribution half life (t1/2α), elimination half life (t1/2β), volume of distribution (Vd), systemic clearance (CL) and the area under the concentration-time curve (AUC).

[2] = tested on: MRSA strain 2490; test: FICI of F332 with antibiotics; format: cell-based, S. aureus
[3] = tested on: MRSA strain 254; test: FICI of F332 with antibiotics; format: cell-based, S. aureus
[4] = tested on: MRSA strain 417; test: FICI of F332 with antibiotics; format: cell-based, S. aureus
[5] = tested on: MRSA strain 1344; test: FICI of F332 with antibiotics; format: cell-based, S. aureus
[6] = tested on: MRSA strain 3589; test: FICI of F332 with antibiotics; format: cell-based, S. aureus
[7] = tested on: MRSA strain 256; test: FICI of F332 with antibiotics; format: cell-based, S. aureus
[8] = tested on: MRSA strain 3332; test: FICI of F332 with antibiotics; format: cell-based, S. aureus
[9] = tested on: MRSA strain 1136; test: FICI of F332 with antibiotics; format: cell-based, S. aureus
[10] = tested on: MRSA strain 2728; test: FICI of F332 with antibiotics; format: cell-based, S. aureus
[11] = tested on: MRSA strain 358; test: FICI of F332 with antibiotics; format: cell-based, S. aureus
[12] = tested on: MRSA strain 774; test: FICI of F332 with antibiotics; format: cell-based, S. aureus
[13] = tested on: MRSA strain 2973; test: FICI of F332 with antibiotics; format: cell-based, S. aureus

CCCCCCCCCNc1ccc(F)c(C(N)=O)c1F [Compound F332, 2,6-difluoro-3-(nonylamino)benzamide]
AUC ([1]; iv, 1 mg/kg): 1740 ng·h/mL | AUC(0-t) ([1]; iv, 1 mg/kg): 699 ng·h/mL | MRT ([1]; iv, 1 mg/kg): 8.08 h | Vd ([1]; iv, 1 mg/kg): 4.81 L/kg | clearance ([1]; iv, 1 mg/kg): 10 mL/min/kg | half-life ([1]; iv, 1 mg/kg, Absorption/distribution half life): 0.25 h | half-life ([1]; iv, 1 mg/kg, Elimination half life): 5.82 h | AUC ([1]; po, 50 mg/kg): 10400 ng·h/mL | AUC(0-t) ([1]; po, 50 mg/kg): 8980 ng·h/mL | CL (area)/kg ([1]; po, 50 mg/kg): 80 mL/min/kg | Cmax ([1]; po, 50 mg/kg): 1920 ng/mL | MRT ([1]; po, 50 mg/kg): 4.82 h | Tmax ([1]; po, 50 mg/kg): 2 h | Vd (area)/kg ([1]; po, 50 mg/kg): 20.916 L/kg | half-life ([1]; po, 50 mg/kg): 3 h | half-life ([1]; po, 50 mg/kg, Absorption/distribution half life): 0.35 h | bioavailability ([1]; po, 50 mg/kg, Bioavailability): ~12% | FICI of F332 combined with Amoxicillin [2]: 0.56 | FICI of F332 combined with Cefuroxime [2]: 0.19 | FICI of F332 combined with Cloxacillin [2]: 0.56 | FICI of F332 combined with Meropenem [2]: 2.25 | FICI of F332 combined with Meticillin [2]: 0.25 | FICI of F332 combined with Amoxicillin [3]: 0.56 | FICI of F332 combined with Cefuroxime [3]: 0.25 | FICI of F332 combined with Cloxacillin [3]: 0.19 | FICI of F332 combined with Meropenem [3]: 1.50 | FICI of F332 combined with Meticillin [3]: 0.25 | FICI of F332 combined with Amoxicillin [4]: 0.27 | FICI of F332 combined with Cefuroxime [4]: 0.06 | FICI of F332 combined with Cloxacillin [4]: 0.09 | FICI of F332 combined with Meropenem [4]: 0.19 | FICI of F332 combined with Meticillin [4]: 0.06 | FICI of F332 combined with Amoxicillin [5]: 1.13 | FICI of F332 combined with Cefuroxime [5]: 0.27 | FICI of F332 combined with Cloxacillin [5]: 0.13 | FICI of F332 combined with Meropenem [5]: 2.00 | FICI of F332 combined with Meticillin [5]: 0.27 | FICI of F332 combined with Amoxicillin [6]: 1.06 | FICI of F332 combined with Cefuroxime [6]: 0.25 | FICI of F332 combined with Cloxacillin [6]: 0.31 | FICI of F332 combined with Meropenem [6]: 1.50 | FICI of F332 combined with Meticillin [6]: 0.52 | FICI of F332 combined with Amoxicillin [7]: 0.08 | FICI of F332 combined with Cefuroxime [7]: 0.01 | FICI of F332 combined with Cloxacillin [7]: 0.13 | FICI of F332 combined with Meropenem [7]: 4.01 | FICI of F332 combined with Meticillin [7]: 0.04 | FICI of F332 combined with Amoxicillin [8]: 0.63 | FICI of F332 combined with Cefuroxime [8]: 0.13 | FICI of F332 combined with Cloxacillin [8]: 0.38 | FICI of F332 combined with Meropenem [8]: 2.25 | FICI of F332 combined with Meticillin [8]: 0.28 | FICI of F332 combined with Amoxicillin [9]: 1.03 | FICI of F332 combined with Cefuroxime [9]: 0.13 | FICI of F332 combined with Cloxacillin [9]: 0.38 | FICI of F332 combined with Meropenem [9]: 4.50 | FICI of F332 combined with Meticillin [9]: 0.31 | FICI of F332 combined with Amoxicillin [10]: 0.08 | FICI of F332 combined with Cefuroxime [10]: 0.14 | FICI of F332 combined with Cloxacillin [10]: 1.01 | FICI of F332 combined with Meropenem [10]: 2.03 | FICI of F332 combined with Meticillin [10]: 0.16 | FICI of F332 combined with Amoxicillin [11]: 0.27 | FICI of F332 combined with Cefuroxime [11]: 1.13 | FICI of F332 combined with Cloxacillin [11]: 1.06 | FICI of F332 combined with Meropenem [11]: 129.0 | FICI of F332 combined with Meticillin [11]: 0.25 | FICI of F332 combined with Amoxicillin [12]: 0.03 | FICI of F332 combined with Cefuroxime [12]: 0.01 | FICI of F332 combined with Cloxacillin [12]: 0.50 | FICI of F332 combined with Meropenem [12]: 0.13 | FICI of F332 combined with Meticillin [12]: 0.26 | FICI of F332 combined with Amoxicillin [13]: 0.08 | FICI of F332 combined with Cefuroxime [13]: 0.53 | FICI of F332 combined with Cloxacillin [13]: 0.07 | FICI of F332 combined with Meropenem [13]: 4.03 | FICI of F332 combined with Meticillin [13]: 0.28
